According to patent US10022341B2, “Methods of preventing neurodegeneration of association cortex in a mammal” (YALE UNIVERSITY, priority 2014, dated 2018):
“Also recorded” adds a separate entry of the source.

Experiments:
[1] = humans; cited from earlier work
[2] = test system: p-S214 tau in aged monkey dlPFC; assay: Immunoblot of p-S214 tau in dlPFC after chronic daily treatment; format: in vivo; conditions: 0.001-0.1 mg/kg daily for 6 mos, n=1, pilot study
Description: FIG. 18 is a set of immunoblots and a graph illustrating the finding that chronic daily treatment with the α2A-AR agonist, guanfacine, reduces abnormal phosphorylation of tau in the aged monkey dlPFC.
Heat-stable tau was prepared as detailed in Bussière et al., 2003, J Comp Neurol. 463:281. Small blocks of dlPFC were surgically removed and flash-frozen before perfusion of subjects. A piece was placed into ice-cold homogenization buffer (10 mM Tris pH 7.4, 140 mM NaCl, 2 mM EGTA, plus protease and phosphatase inhibitors; 400 μL per 100 mg tissue) and homogenized by sonication. A small fraction was reserved for protein quantification for gel loading. NaCl was added to 250 mM, followed by addition of β-mercaptoethanol (14.3 M, Sigma) to 5% total volume. Samples were vortexed and heated to 100° C. for 15 min, vortexed, then cooled on ice for 30 min. Lysates were cleared by centrifugation at 16,100×g for 10 min at 4° C., and the supernatant used for immunoblotting. Band intensities were normalized by total heat-stable protein, quantified by measurement of major band intensities on a Coomassie stained gel (FIG. 5C).
All samples were run on Invitrogen Novex 4-12% Tris-glycine gels using the Biorad Western blotting system. […] Bands were quantified using Odyssey Software, and statistics performed by Student's T-test, unless stated otherwise.

[3] = test system: aged monkeys (18-28 yrs); assay: Working memory performance after chronic daily treatment; format: in vivo, monkey
[4] = test system: phospho-COXIV-1 (p-S58) in aged monkey dlPFC; assay: Immunoblot of phospho-COXIV-1 (p-S58) in dlPFC after chronic daily treatment; format: in vivo; conditions: 0.001-0.1 mg/kg daily for 6 mos, n=1, pilot study
Description: FIG. 19 is a set of immunoblots and a bar graph illustrating that chronic daily treatment with the α2A-AR agonist, guanfacine, reduces abnormal phosphorylation of COXIV in the aged monkey dlPFC.
All samples were run on Invitrogen Novex 4-12% Tris-glycine gels using the Biorad Western blotting system. Lanes were transferred onto […] Nitrocellulose (Biorad) and incubated overnight in primary antibodies: anti PDE4A (Abcam, ab14607; 1:1000), anti-GAPDH (Advanced Immunochemical, mAb 6C5; 1:5000), anti-PDE4B (Pearson et al., 1985, Proc. Natl. Acad. Sci. USA 82:4531), anti-β-tubulin (T2200, Sigma; 1:5000), anti-PSD95 (EMD Millipore, mAb N68; 1:5000), anti-pSer214 (EMD Millipore, AB6972; 1:1000) for all experiments, except the primary culture experiment, where Abcam 4846 was used due to discontinuation of the previous antibody, anti-pThr231 (Pierce, OPA1-031556; 1:1000), anti-tau (clone 5E2, EMD Millipore, 05-348; 1:500-1:1000). Primary antibodies were labeled using the appropriate Licor IRDye 680 or 800 secondary antibody, and visualized using a Licor Odyssey Infra Red Scanner. Bands were quantified using Odyssey Software, and statistics performed by Student's T-test, unless stated otherwise.

[5] = test system: pS214-tau in mouse primary cortical neurons; assay: pSer214 phosphorylation assay in cultured neurons (immunoblot); format: cell-based
Description: FIG. 15 is a series of immunoblots illustrating the effect of PDE4 inhibition on phosphorylation of tau at Serine 214. Mouse primary cortical neurons between 7-11 days in vitro were preincubated with 10 μM rolipram or vehicle for 10 min, before being subjected to treatment with varying nM concentrations of forskolin (as indicated). Following this treatment, cells were lysed in 1% SDS with protease and phosphatase inhibitors (Complete Mini, Roche and PhosStop, Roche), and heated to 70° C. to prevent further phosphatase activity. Samples were quantified by BCA assay, and analyzed by imunoblotting. Blots were labeled for pSer214-tau (Abcam, 4846), total tau (EMD Millipore, clone 5E2) and GAPDH (Advanced Immunochemical, mAb 6C5). Bands were quantified using Image J, and total tau signals were normalized by GAPDH. p-Tau signals were then normalized to total tau signals.
Primary cortical neurons were prepared from P1 C57Bl/6 mice. One day prior to neuron production, plates were coated overnight with Poly-D-Lysine solution (Sigma). […]
Assays were performed on primary cortical neurons between 7-11 days in vitro. […] Samples were quantified by BCA assay, and analyzed by immunoblotting. In this instance, band intensity was quantified using ImageJ, and significance assessed by 2 way ANOVA using Graph Pad Prism software.

Row | Compound | safety of long-term treatment [1] | p-S214 tau expression in dlPFC compared to chronic vehicle [2] | working memory / cognitive performance compared to baseline ([3]; 0.001 or 0.01 mg/kg daily for 6 months, n=4 or 5) | working memory / cognitive performance compared to baseline ([3]; highest dose 0.1 mg/kg daily for 6 months, 0.1 mg/kg) | phospho-COXIV-1 (p-S58) expression in dlPFC compared to chronic vehicle [4] | forskolin-induced increase in pS214-tau ([5]; 10 μM with forskolin, F(1,60)=8.882, p=0.0042) | pS214-tau level ([5]; PDE4 inhibition, FIG. 3G)
1 | NC(N)=NC(=O)Cc1c(Cl)cccc1Cl [guanfacine, N-(diaminomethylidene)-2-(2,6-dichlorophenyl)acetamide] | proven safe for long-term treatment | reduces the expression of p-tau; also recorded: dose-related reduction in phosphorylated tau at the pS214 site; also recorded: dose-related reduction in p-S214 expression | enhances cognitive performance; also recorded: significantly improved working memory performance | produced improvement in some monkeys but not in others; also recorded: highly variable and thus not significant | reduces the expression of p-tau and phospho-COXIV-1; also recorded: decreasing phospho-COXIV-1; also recorded: decreased phospho-COXIV-1 expression | – | –
2 | COc1ccc(C2CNC(=O)C2)cc1OC1CCCC1 (stereo not shown) [rolipram] | – | – | – | – | – | significantly increased | increased pS214-tau
